Source: patent US11045456B2, “Compositions and methods for treating COPD and other inflammatory conditions” (Georgia State University Research Foundation, Inc., priority 2015, dated 2021)

What was measured:
Assay type in all cases: cell-based, human
[1] = system: CCL5, CCL7, CXCL10, CXCL11, IL-8, GM-CSF and TNF-α; experiment: NTHi-induced expression of pro-inflammatory mediators in BEAS-2B cells
Description: Bacterial strains and culture condition. […] Bacteria were grown on chocolate agar plates at 37° C. in an atmosphere of 5% CO2 overnight and subsequently inoculated in brain heart infusion (BHI) broth supplemented with 3.5 μg/mL NAD and hemoglobin (BD Biosciences). After overnight incubation, the bacteria were subcultured into fresh broth and the log phase bacteria, monitored by measurement of optical density (OD) value, were washed and suspended in DMEM for in vitro cell experiments and in isotonic saline for in vivo animal experiments. For all in vitro experiments except the dose dependent experiment, NTHi was treated at multiplicity of infection (MOI) of 50.
Cell culture. All media described below were supplemented with 10% fetal bovine serum (Sigma-Aldrich). […] BEAS-2B cells stably expressing human PDE4B2 (PDE4B2-stable cells) were obtained by plasmid transfection following Geneticin selection (300 μg/mL). Cells were cultured in a humidified atmosphere of 5% CO2 at 37° C.

[2] = system: PDE4B2; experiment: PDE4B2 expression (RT-PCR) in BEAS-2B cells
Description: Bacterial strains and culture condition. Clinical isolates of NTHi strain 12 were used in this study (Ishinaga et al., EMBO J., 26(4):1150-1162, 2007). Bacteria were grown on chocolate agar plates at 37° C. in an atmosphere of 5% CO2 overnight and subsequently inoculated in brain heart infusion (BHI) broth supplemented with 3.5 μg/mL NAD and hemoglobin (BD Biosciences). After overnight incubation, the bacteria were subcultured into fresh broth and the log phase bacteria, monitored by measurement of optical density (OD) value, were washed and suspended in DMEM for in vitro cell experiments and in isotonic saline for in vivo animal experiments. For all in vitro experiments except the dose dependent experiment, NTHi was treated at multiplicity of infection (MOI) of 50.
Cell culture. All media described below were supplemented with 10% fetal bovine serum (Sigma-Aldrich). Human bronchial epithelial BEAS-2B cells were maintained in RPMI medium (Life Technologies) (ATCC® CRL-9609™). Human primary bronchial epithelial NHBE (Lonza) cells were maintained in bronchial epithelial growth media (BEGM) supplemented with BEGM SingleQuots (Jono et al., J. Biol. Chem. 277(47):45547-45557, 2002). BEAS-2B cells stably expressing human PDE4B2 (PDE4B2-stable cells) were obtained by plasmid transfection following Geneticin selection (300 μg/mL). Cells were cultured in a humidified atmosphere of 5% CO2 at 37° C.
Plasmids, transfections and luciferase assay. The expression plasmids, constitutively active forms of IKKα (IKKα-CA, S176E/S180E) and IKKβ (IKKβ-CA, S177E/S181E) and a dominant negative form of IκBα (IκBα-DN, S32A/S36A) were previously described (Shuto et al., Proc. Natl. Acad. Sci. USA, 98(15):8774-8779, 2001; Ishinaga et al., supra). Luciferase reporter construct of NF-κB (pGL4.32) was purchased from Promega. Human PDE4B2, p65 (RelA) and PKA-Cβ1/2 cDNA sequences were generated and inserted into the BamHI and HindIII sites of the pcDNA3.1/mycHis(−) vector. Mutant p65 and PDE4B2-D392A were generated by using PRIMESTAR® Max (Takara). Empty vector was used as a control and was also added where necessary to ensure an equivalent amount of input DNA. All transient transfections were carried out in triplicate using TRANSIT-LT1® reagent (Minis) following the manufacturer's instruction.

[3] = system: p65 and PKA-Cβ; experiment: Co-immunoprecipitation of p65 and PKA-Cβ in BEAS-2B cells; conditions: BEAS-2B cells transfected with p65 and PKA-Cβ; co-treatment of roflumilast with NTHi
Description: Immunoprecipitation. Cell extracts were incubated with 1 μg of primary antibodies overnight at 4° C., followed by a 2 h incubation with protein G PLUS-agarose beads (Santa Cruz Biotechnology). Immunoprecipitates were then suspended in a sample buffer, separated on 8% SDS-PAGE gels, transferred to PVDF membrane, and detected by immunoblot analysis as described above.

SMILES: O=C(Nc1c(Cl)cncc1Cl)c1ccc(OC(F)F)c(OCC2CC2)c1 [roflumilast]
- NTHi-induced induction of CCL5, CCL7 and IL-8 ([1]; BEAS-2B cells): modestly suppressed
- NTHi-induced induction of TNF-α and GM-CSF ([1]; BEAS-2B cells): markedly inhibited
- NTHi-induced CXCL10 and CXCL11 induction ([1]; BEAS-2B cells, even at higher concentration): almost no inhibitory effect
- efficacy in suppressing Group A-chemokines ([1]; in PDE4B-depleted but not in PDE4D-depleted cells): more efficacious
- expression of PDE4B2 ([2]; BEAS-2B, Rof 0.1 μM with NTHi or TNF-α (10 ng/mL), semi-quantitative RT-PCR): synergistically up-regulated
- PDE4B2 expression ([2]; cells transfected with p65 mutants S468A, S529A and S536A but not S276A, roflumilast and NTHi): synergistically enhanced
- PDE4B2 expression ([2]; in IKKβ-CA- but not IKKα-CA-transfected BEAS-2B cells): synergistically enhanced
- PDE4B2 expression ([2]; p65-transfected cells): synergistically enhanced
- interaction of p65 and PKA-Cβ [3]: enhanced
